# Where “and” joins values, the source holds several entries; their conditions need not be identical. Equal values may be shown once. Read-outs that look alike come from different tables or passages of the source.
# What was measured:
# [1] = Effect of high fat meal on absorption of 1.6 g mesalamine granules in sachet, crossover, healthy subjects; format: in vivo, human; conditions: for Tmax following a high-fat meal: 1.6 g granulated mesalamine (2×0.8 g); for Effect of high fat meal on plasma Cmax: fed vs fasted, 80%:125% rule
# [2] = target: T1, CYP1A2 (Homo sapiens, UniProt P05177); assay: In vitro drug-drug interaction study, human liver microsomes; format: in vitro ADME
# T1 construct: In an in vitro study using human liver microsomes; from tissue; host or cells: human liver microsomes
# T1 sequence (P05177 1-516): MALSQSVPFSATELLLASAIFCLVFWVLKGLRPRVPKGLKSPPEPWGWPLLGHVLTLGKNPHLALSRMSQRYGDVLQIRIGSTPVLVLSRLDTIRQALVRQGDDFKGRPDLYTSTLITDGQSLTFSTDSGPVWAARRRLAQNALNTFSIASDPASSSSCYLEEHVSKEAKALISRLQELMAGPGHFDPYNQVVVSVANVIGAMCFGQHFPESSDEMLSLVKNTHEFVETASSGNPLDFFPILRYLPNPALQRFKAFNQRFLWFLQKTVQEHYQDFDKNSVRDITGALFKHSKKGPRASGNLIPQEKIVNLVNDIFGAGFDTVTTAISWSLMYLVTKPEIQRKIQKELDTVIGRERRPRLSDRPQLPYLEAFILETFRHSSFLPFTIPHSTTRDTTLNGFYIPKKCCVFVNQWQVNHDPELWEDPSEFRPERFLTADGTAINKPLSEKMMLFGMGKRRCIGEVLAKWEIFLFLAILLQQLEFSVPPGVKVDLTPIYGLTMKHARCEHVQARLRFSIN
# [3] = target: CYP2C9 (Homo sapiens, UniProt P11712); assay: as above; format: in vitro ADME
# [4] = target: CYP2C19 (Homo sapiens, UniProt P33261); assay: as above; format: in vitro ADME
# [5] = target: CYP2D6 (Homo sapiens, UniProt P10635); assay: as above; format: in vitro ADME
# [6] = target: CYP3A4 (Homo sapiens, UniProt P08684); assay: as above; format: in vitro ADME
# [7] = test system: mice; assay: Dietary carcinogenicity study; format: in vivo; conditions: 2000 mg/kg/day
# Protocol: (§1) These doses are about 2.6 and 5.4 times the recommended human dose of granulated mesalamine capsules of 1.5 g/day (30 mg/kg if 50 kg body weight assumed or 1110 mg/m^2), respectively, based on body surface area. Mesalamine was negative in the Ames test, the mouse lymphoma cell (L5178Y/TK+/−) forward mutation test, the sister chromatid exchange assay in the Chinese hamster bone marrow test, and the mouse bone marrow micronucleus test.
# [8] = test system: rats; assay: Dietary carcinogenicity study; format: in vivo; conditions: doses as high as 480 mg/kg/day
# Protocol: as §1
# [9] = Ames test; format: cell-based
# Protocol: as §1
# [10] = test system: mouse lymphoma cell (L5178Y/TK+/−); assay: Mouse lymphoma cell forward mutation test; format: cell-based
# Protocol: as §1
# [11] = test system: Chinese hamster bone marrow; assay: Sister chromatid exchange assay in the Chinese hamster bone marrow test; conditions: in vivo
# Protocol: as §1
# [12] = test system: rats; assay: Fertility and reproductive performance study; format: in vivo; conditions: oral doses up to 320 mg/kg
# [13] = test system: rats; assay: 13-week and 26-week oral toxicity studies (renal toxicity); format: in vivo
# Description: (§2) Animal studies with mesalamine (13-week and 26-week oral toxicity studies in rats, and 26-week and 52-week oral toxicity studies in dogs) have shown the kidney to be the major target organ of mesalamine toxicity.
# [14] = test system: dogs; assay: 26-week and 52-week oral toxicity studies (renal toxicity); format: in vivo; conditions: oral 60 mg/kg/day (about 1.1 times the human dose) or higher
# Description: as §2
# [15] = test system: rats; assay: Reproduction studies; conditions: rat, in vivo
# [16] = test system: rabbits; assay: Reproduction studies; conditions: rabbit, in vivo
# [17] = Detection in human breast milk; conditions: in vivo
# [18] = Steady state pharmacokinetics, 3 treatments of 4 days: Asacol 800 mg BID, granulated mesalamine formulation 800 mg BID and 1600 mg QD; format: in vivo, human; conditions: for Tmax: median (range); for Systemic exposure, QD versus BID regimen: granulated mesalamine formulation 1600 mg QD vs 800 mg BID
# Protocol: In a study of 3 treatments in 3 study periods, each separated by a minimum washout of 7 days, treatments were administered orally, and were as follows:
# Subjects received treatments A, B, and C, with each administered during one of the three 4-day study treatment periods.
# Each treatment regimen lasted for 4 days and was followed by at least a 7 day washout period.
# [19] = human, in vivo
# [20] = test system: mice; conditions: mouse, in vivo
# [21] = test system: rats; conditions: rat, in vivo
# [22] = human, in vivo, 1600 mg
# [23] = clinical; conditions: human, in vivo
# [24] = clinical; conditions: human, in vivo, 1600 mg
# [25] = In vitro plasma protein binding
# [26] = Single and multiple oral dose pharmacokinetics of 1.5 g granulated mesalamine formulation, crossover, healthy subjects, fasting; conditions: for AUC(0-t): AUC0-24, plasma, n = 24; for AUC(0-t) / Cmax: mean ±SD; for Tmax: median (range)
# [27] = in vitro; conditions: plasma
# [28] = granulated mesalamine formulation
# [29] = granulated mesalamine formulation administered BID
# [30] = granulated mesalamine formulation administered QD
# [31] = human, plasma, oral, 800 mg, AUCC, Day 4, after MP 800 mg BID, converted from μmol * h/L, read-out: AUC
# [32] = human, plasma, oral, 800 mg, AUCC, Day 4, after Treatment A Asacol 800 mg BID, mean ± SD, read-out: AUC
# [33] = human, plasma, oral, 800 mg, AUCC, Day 4, after Treatment B MP 800 mg BID, mean ± SD, read-out: AUC
# [34] = human, plasma, oral, 800 mg, Day 4, after Asacol 800 mg BID, converted from μmol/L, mean ± SD
# [35] = human, plasma, oral, 800 mg, Day 4, after MP 800 mg BID, converted from μmol/L, mean ± SD
# [36] = human, plasma, oral, 800 mg, plasma, Day 4, after Treatment A Asacol 800 mg BID, n = 28, mean ± SD
# [37] = human, plasma, oral, 800 mg, plasma, Day 4, after Treatment B MP 800 mg BID, n = 28, mean ± SD
# [38] = human, plasma, oral, 1600 mg, AUC0-24, Day 4, after MP 1600 mg QD, converted from μmol * h/L, read-out: AUC
# [39] = human, plasma, oral, 1600 mg, AUC0-24, Day 4, after Treatment C MP 1600 mg QD, mean ± SD, read-out: AUC
# [40] = human, plasma, oral, 1600 mg, Day 4, after MP 1600 mg QD, converted from μmol/L, mean ± SD
# [41] = human, plasma, oral, 1600 mg, plasma, Day 4, after Treatment C MP 1600 mg QD, n = 28, mean ± SD
# [42] = human, plasma, oral, Day 4, after MP 800 mg BID, time from first dose, read-out: Tmax
# [43] = human, plasma, oral, Day 4, after MP 1600 mg QD, read-out: Tmax
# [44] = MP 1600 mg QD versus MP 800 mg BID, geometric mean ratio
# [45] = human, plasma, oral, 1.5 g, multiple dose 1.5 g QD, after 7 days
# [46] = human, plasma, oral, 1.5 g, single dose 1.5 g
# CYP3A4, sequence (P08684 whole entry): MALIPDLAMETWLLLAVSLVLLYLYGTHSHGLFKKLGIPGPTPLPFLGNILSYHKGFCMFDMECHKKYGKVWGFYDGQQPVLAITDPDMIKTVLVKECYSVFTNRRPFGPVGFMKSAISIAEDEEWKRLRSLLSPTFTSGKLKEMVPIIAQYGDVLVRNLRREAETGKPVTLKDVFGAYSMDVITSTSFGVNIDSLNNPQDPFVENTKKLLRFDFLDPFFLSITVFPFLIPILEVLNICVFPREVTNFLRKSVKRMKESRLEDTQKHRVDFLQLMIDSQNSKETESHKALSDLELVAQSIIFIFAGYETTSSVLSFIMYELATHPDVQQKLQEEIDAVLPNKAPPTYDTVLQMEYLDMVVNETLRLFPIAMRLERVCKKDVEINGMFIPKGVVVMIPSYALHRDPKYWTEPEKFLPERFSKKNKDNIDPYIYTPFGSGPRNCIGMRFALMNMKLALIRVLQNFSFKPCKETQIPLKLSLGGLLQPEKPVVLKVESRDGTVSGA
# CYP2C19, sequence (P33261 whole entry): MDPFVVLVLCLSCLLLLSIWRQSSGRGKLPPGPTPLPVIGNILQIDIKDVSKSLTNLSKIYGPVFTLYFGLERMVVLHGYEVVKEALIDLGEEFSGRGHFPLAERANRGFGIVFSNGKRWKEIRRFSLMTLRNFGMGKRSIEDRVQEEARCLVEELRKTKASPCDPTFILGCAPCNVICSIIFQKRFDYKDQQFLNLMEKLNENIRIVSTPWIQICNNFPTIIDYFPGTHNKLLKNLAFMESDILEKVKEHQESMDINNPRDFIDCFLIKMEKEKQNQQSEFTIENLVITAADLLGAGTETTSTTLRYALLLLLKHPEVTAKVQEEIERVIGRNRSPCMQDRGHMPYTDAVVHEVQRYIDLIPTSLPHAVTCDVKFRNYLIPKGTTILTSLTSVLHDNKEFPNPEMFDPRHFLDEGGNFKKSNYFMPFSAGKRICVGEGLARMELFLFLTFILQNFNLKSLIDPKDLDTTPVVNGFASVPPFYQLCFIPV
# CYP2D6, sequence (P10635 whole entry): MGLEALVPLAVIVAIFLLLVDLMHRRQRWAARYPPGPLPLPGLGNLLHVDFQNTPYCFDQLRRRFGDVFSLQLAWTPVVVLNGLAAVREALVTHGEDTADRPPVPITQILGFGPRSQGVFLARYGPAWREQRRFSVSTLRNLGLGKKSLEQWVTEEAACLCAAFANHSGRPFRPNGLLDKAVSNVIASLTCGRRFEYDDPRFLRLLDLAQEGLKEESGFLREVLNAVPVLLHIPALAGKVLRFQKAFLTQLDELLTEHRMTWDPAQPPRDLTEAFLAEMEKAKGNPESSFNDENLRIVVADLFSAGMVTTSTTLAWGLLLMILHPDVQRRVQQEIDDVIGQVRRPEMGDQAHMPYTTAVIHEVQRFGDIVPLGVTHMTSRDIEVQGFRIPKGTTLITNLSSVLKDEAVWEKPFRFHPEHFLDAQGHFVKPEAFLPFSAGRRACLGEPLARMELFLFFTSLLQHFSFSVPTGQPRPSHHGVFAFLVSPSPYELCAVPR
# CYP2C9, sequence (P11712 whole entry): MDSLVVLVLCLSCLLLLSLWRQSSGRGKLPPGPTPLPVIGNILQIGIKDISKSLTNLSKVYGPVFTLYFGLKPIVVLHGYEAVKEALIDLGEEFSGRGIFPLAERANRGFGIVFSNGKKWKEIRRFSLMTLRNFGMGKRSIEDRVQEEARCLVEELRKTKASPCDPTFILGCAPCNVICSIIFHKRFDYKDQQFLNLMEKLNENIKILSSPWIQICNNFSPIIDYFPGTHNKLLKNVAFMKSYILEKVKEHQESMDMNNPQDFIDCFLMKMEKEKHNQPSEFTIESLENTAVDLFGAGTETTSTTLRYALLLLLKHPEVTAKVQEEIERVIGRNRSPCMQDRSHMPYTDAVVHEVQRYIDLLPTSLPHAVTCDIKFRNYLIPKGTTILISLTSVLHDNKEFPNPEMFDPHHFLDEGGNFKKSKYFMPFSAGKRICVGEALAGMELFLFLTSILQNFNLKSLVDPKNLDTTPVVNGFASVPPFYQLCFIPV
structure (smiles),measurement,setting,value
"Nc1ccc(O)c(C(=O)O)c1 [Mesalamine (5-ASA), 5-aminosalicylic acid]",Increase in AUC0-inf following a high-fat meal,[1]; 1.6 g granulated mesalamine,11%
same,Increase in AUC0-last following a high-fat meal,[1]; 1.6 g granulated mesalamine,16%
same,Tmax following a high-fat meal,[1],prolonged
same,Increase in cumulative urinary excretion with a high fat meal,[1]; 1.6 g granules,27%
same,Effect of high fat meal on plasma Cmax,"[1]; 1.6 g granules, listed as 5-ASA",did not affect
same,Effect of high fat meal on plasma Cmax,"[1]; 1.6 g granules, listed as mesalamine",equivalent
same,Inhibition of CYP1A2,[2],not to inhibit
same,Inhibition of CYP2C9,[3],not to inhibit
same,Inhibition of CYP2C19,[4],not to inhibit
same,Inhibition of CYP2D6,[5],not to inhibit
same,Inhibition of CYP3A4,[6],not to inhibit
same,Carcinogenicity,[7],not carcinogenic
same,Carcinogenicity,[8],not carcinogenic
same,Ames test result,[9],negative
same,Forward mutation test result,[10],negative
same,Sister chromatid exchange assay result,[11],negative
same,Effect on fertility or reproductive performance,[12],no effect
same,Renal finding,[13]; oral 40 mg/kg/day (about 0.20 times the human dose),minimal to slight tubular injury
same,Renal finding,[13]; oral 160 mg/kg/day (about 0.90 times the human dose) or higher,"renal lesions including tubular degeneration, tubular mineralization, and papillary necrosis"
same,Renal finding,[14],"renal lesions including tubular atrophy, interstitial cell infiltration, chronic nephritis, and papillary necrosis"
same,Reproduction study finding,[15],no evidence of impaired fertility or harm to the fetus
same,Reproduction study finding,[16],no evidence of impaired fertility or harm to the fetus
same,Concentration detected in human breast milk,[17],low concentrations
same,Tmax,"[18]; Day 4, after Asacol 800 mg BID","16.0 (0, 24.0) h and 16.0 (0, 24.0)^e h"
same,"Steady state plasma concentrations as measured by Cmax, QD compared to BID",[18]; [28],higher
same,"Systemic exposure, QD versus BID regimen",[18],comparable
same,"Time to maximum drug concentrations, mean",[18]; [29],11.00 h
same,"Time to maximum drug concentrations, mean",[18]; [30],3.96 h
same,AUC,"[18]; human, plasma, oral, 800 mg, AUCC, Day 4, after Asacol 800 mg BID, converted from μmol * h/L, read-out: AUC",0.00834 ± 0.0075 µg·h/mL
same,AUC,[18]; [31],14.8 ± 5.5 µg·h/mL
same,AUC,[18]; [32],54.5 ± 49 µM·h
same,AUC,[18]; [33],97 ± 35.9 µM·h
same,Cmax,[18]; [34],1.06 ± 1.37 µg/mL
same,Cmax,[18]; [35],1.82 ± 0.71 µg/mL
same,Cmax,[18]; [36],6.93 ± 8.99 µM
same,Cmax,[18]; [37],11.9 ± 4.65 µM
same,AUC,[18]; [38],14.8 ± 6.49 µg·h/mL
same,AUC,[18]; [39],96.5 ± 42.4 µM·h
same,Cmax,[18]; [40],3.04 ± 1.67 µg/mL
same,Cmax,[18]; [41],19.9 ± 10.9 µM
same,Tmax,[18]; [42],16 h
same,Tmax,[18]; [43],3 h
same,Increase in systemic exposure (AUC0-24) at steady state compared with a single dose,[19],1.5 fold
same,Lethal single oral dose,[20],800 mg/kg
same,Lethal single oral dose,[21],1800 mg/kg
same,T1/2,[22],5.49 h
same,AUC(0-inf),[23],14 ± 5 µg·h/mL
same,AUC(0-t),[23]; AUC0-24,11 ± 5 µg·h/mL
same,Cmax,[23]; Cmax,2.1 ± 1.1 µg/mL
same,Tmax,[23]; Tmax,4 h
same,half-life,[24],5.49 h
same,fraction unbound at 2.5 μg/mL,[25],0.57
same,t1/2,"[26]; single dose 1.5 g, harmonic mean (pseudo SD)",9 ± 7 h
"CC(=O)Nc1ccc(O)c(C(=O)O)c1 [N-Ac-5-ASA, N-acetyl-5-aminosalicylic acid]",Tmax following a high-fat meal,[1],prolonged
same,Effect of high fat meal on overall (rate and) extent of absorption,[1]; 1.6 g granules,not affected
same,Effect of high fat meal on plasma Cmax,[1]; 1.6 g granules,equivalent
same,Inhibition of CYP1A2,[2],not to inhibit
same,Inhibition of CYP2C9,[3],not to inhibit
same,Inhibition of CYP2C19,[4],not to inhibit
same,Inhibition of CYP2D6,[5],not to inhibit
same,Inhibition of CYP3A4,[6],not to inhibit
same,Concentration detected in human breast milk,[17],higher concentrations
same,AUC C/B Ratio (90% CI),[18]; [44],"93 (78, 112)"
same,Cmax C/B Ratio (90% CI),[18]; [44],"118 (98, 143)"
same,"Steady state plasma concentrations as measured by Cmax, QD compared to BID",[18]; [28],higher
same,"Systemic exposure, QD versus BID regimen",[18],comparable
same,"Time to maximum drug concentrations, mean",[18]; [29],11.68 h
same,"Time to maximum drug concentrations, mean",[18]; [30],5.21 h
same,"Cmax ratio, QD compared to BID","[18]; granulated mesalamine formulation, steady state",118%
same,AUC,"[18]; human, plasma, oral, 800 mg, AUC, AUCC, Day 4, after Asacol 800 mg BID, converted from μmol * h/L",30.7 ± 22.2 µg·h/mL
same,AUC,[18]; [31],46.4 ± 15.4 µg·h/mL
same,AUC,[18]; [32],158 ± 114 µM·h
same,AUC,[18]; [33],238 ± 79.1 µM·h
same,Cmax,[18]; [34],2.34 ± 1.8 µg/mL
same,Cmax,[18]; [35],3.61 ± 1.23 µg/mL
same,Cmax,[18]; [36],12 ± 9.22 µM
same,Cmax,[18]; [37],18.5 ± 6.31 µM
same,AUC,[18]; [38],45.9 ± 19.7 µg·h/mL
same,AUC,[18]; [39],235 ± 101 µM·h
same,Cmax,[18]; [40],4.5 ± 1.82 µg/mL
same,Cmax,[18]; [41],23.1 ± 9.35 µM
same,Tmax,[18]; [42],16 h
same,Tmax,[18]; [43],3 h
same,T1/2,[22],10.05 h
same,fraction unbound at 2.5 μg/mL,[27],0.22
same,half-life,[24],10.1 h
same,Increase in systemic exposure (AUC0-24) at steady state compared with a single dose,[26]; 1.5 g granulated mesalamine formulation,1.7 fold
same,AUC(0-inf),"[26]; human, plasma, oral, 1.5 g",51 ± 23 µg·h/mL
same,AUC(0-t),[26]; [45],37 ± 9 µg·h/mL
same,AUC(0-t),"[26]; human, plasma, oral, 1.5 g, single dose 1.5 g granulated mesalamine formulation, fasting",26 ± 6 µg·h/mL
same,Cmax,"[26]; human, plasma, oral, 1.5 g, plasma, multiple dose 1.5 g QD, after 7 days",3.4 ± 0.9 µg/mL
same,Cmax,[26]; [46],2.8 ± 0.8 µg/mL
same,half-life,"[26]; human, plasma, oral, 1.5 g, Mean half-lives, following single and multiple doses of granulated mesalamine formulation",12 to 14 h
same,Tmax,[26]; [45],5 h
same,Tmax,[26]; [46],4 h
same,half-life,"[26]; human, plasma, oral, 1.5 g, t1/2, multiple dose 1.5 g QD, after 7 days, harmonic mean (pseudo SD)",14 ± 10 h
same,half-life,"[26]; human, plasma, oral, 1.5 g, t1/2, single dose 1.5 g, harmonic mean (pseudo SD)",12 ± 11 h

# From US8865688B2, “Compositions and methods for treatment of bowel diseases with granulated mesalamine” (priority 2008, dated 2014)
